Results taken from US11096910B2, “Metabolically robust analogs of CYP-eicosanoids for the treatment of cardiac disease” (OMEICOS THERAPEUTICS GMBH, priority 2015, dated 2021).

Key:
[1] = tested on: mouse neonatal primary cardiomyocyte culture; test: Oxygen-glucose deprivation/reoxygenation injury in primary cardiomyocytes; format: cell-based; details: for amelioration of loss of cell number: Hoechst 33342 staining; for reduction of apoptosis: caspase 3/7 activation
Description: In vitro ischemic injury was induced in mouse neonatal primary cardiomyocyte culture by oxygen-glucose deprivation for 18 hours and a 24 hours reoxygenation period in a humidified incubator with 5% CO2/95% air. Cardiomyocytes were incubated with the test compounds during 4 hours prior to the oxygen glucose depriviation (OGD) induction. The test compounds were also present during the OGD insult and during the 24 h-reoxygenation period. After the reoxygenation period, cell number was assessed by Hoechst 33342 staining, apoptosis was measured by determining caspase 3/7 activation, and cell membrane integrity or necrosis was measured as LDH release.
Data were expressed as mean±SD of three separate wells and individual comparisons were made with Student's t-test (SigmaPlot 9.0 program). The results were normalized to the normoxia-treated cells. Statistical significance (*) p<0.05 as compared to normoxia/DMSO-treated cells and (§) hypoxia/DMSO treated cells. Results

[2] = tested on: spontaneously beating neonatal rat cardiomyocytes (NRCMs); test: Spontaneous beating rate of neonatal rat cardiomyocytes (anti-arrhythmic cell model); format: cell-based; details: 20 nM or 30 nM; comparison between analogs
Description: The compounds include analogues being part of the invention (Comp-01 to Comp-05), which were synthesized as described in example 1, and additional related compounds (Comp-06 to Comp-13). A 1000-fold stock solutions in ethanol of the test compounds was prepared before use.
In order to measure the biological activities of metabolically robust analogs of CYP-eicosanoids an established cell model was used (Kang, J. X. et al., Proc Natl Acad Sci USA, 1994. 91(21): p. 9886-90). The spontaneously beating neonatal rat cardiomyocytes (NRCMs) are a model system to investigate anti-arrhythmic effects of test-compounds. […]
Isolation and cultivation of NRCMs were performed as described previously (Wallukat, G et al., J Clin Invest. 1999; 103: 945-952; Falck, J R et al., J Med Chem. 2011 Jun. 23; 54(12):4109-18). […] After four hours of incubation cells were adopted for 10 min to 31° C. and beating was recorded using an inverted microscope (Leica DM IRB) equipped with a CCD camera and coupled to an IonOptix (software: IonWizard6, IonOptix). To determine the basal rate, 6 to 8 individual clusters were selected and the number of contractions was counted for 15 sec. After that, the compound to be tested was added to the culture and the beating rate of the same clusters was monitored 5 min later again. […]

Compound | reduction of cellular necrosis (LDH-release) ([1]; 30 nM) | amelioration of loss of cell number ([1]; 30 nM) | reduction of apoptosis ([1]; 30 nM) | reduction of cellular necrosis (LDH-release) ([1]; 10 μM) | amelioration of loss of cell number ([1]; 10 μM) | reduction of apoptosis ([1]; 10 μM) | negative chronotropic effect on NRCMs, in words [2]
CCC1OC1C/C=C\C/C=C\C/C=C\C/C=C\CCCC(=O)O (stereo not shown) [17,18-EEQ, reference compound] | 41% | did not significantly affect cell number | not at the low concentration tested | 37% | did not significantly affect cell number | 43% | 
CNC(=O)C(=O)NCCCCc1ccccc1CCCCCCOCC(=O)O [Comp-05] |  |  |  |  |  |  | without major loss of activity
